The record followed here is ChEMBL document CHEMBL1201862, “PubChem BioAssay data set” (2004).

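How tested: cells in 96-well plates exposed to compound for 48 hours at five concentrations. Here, GI50 denotes the concentration required for 50% inhibition of growth.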 The source made the active and inactive calls. Rule as the data show it: active = GI50 up to about 1.1 µM and inactive = higher.

Among the test systems are NCI-H23; HCC 2998; NCI-H460; EKVX; SK-MEL-2; BT-549; NCI-H522; SK-MEL-5; HOP-62; A549; NCI/ADR-RES; U-251; CCRF-CEM; ACHN; NCI-H226; M14; MDA-MB-435; PC-3; DU-145; UO-31.
Common to all, as to test: inhibition of tumour cell growth, NCI panel, 48 h

For the compound `COc1ccc(C(=O)/C=C2\C(=O)Nc3ccc(Br)cc32)cc1`, the GI50 in the test on NCI-H23 was 4.27 µM (inactive); with HCC 2998, 4.26 µM (inactive); in the test with NCI-H460, 10 µM (inactive); in the test with EKVX, 13.6 µM (inactive); with SK-MEL-2 it was 16.1 µM (inactive); in the test with BT-549, 5.75 µM (inactive). Besides, the GI50 with NCI-H522 was 4.03 µM (inactive); with SK-MEL-5, 18.4 µM (inactive); in the test with HOP-62, 10.4 µM (inactive); in the test on A549, 15.3 µM (inactive); in the test on NCI/ADR-RES, 1.71 µM (inactive); in the test on U-251 it was 14.2 µM (inactive). For the same compound, the GI50 was 1.4 µM (inactive) in the test with CCRF-CEM; 1.89 µM (inactive) with ACHN; 11.1 µM (inactive) with NCI-H226; 12 µM (inactive) with M14; 6.75 µM (inactive) with MDA-MB-435; 6.68 µM (inactive) in the test with PC-3. Besides, the values for the GI50 in the test on DU-145 and in the test with UO-31 were 7.48 µM (inactive) and 2.24 µM (inactive), respectively.
For `OCC1OC(N2CCN(C3OC(CO)C(O)C(O)C3O)CC2)C(O)C(O)C1O` (stereo not given), the GI50 in the test with NCI-H23, in the test with HCC 2998, in the test on NCI-H460, in the test on EKVX, with SK-MEL-2 and with BT-549 was > 100 µM (inactive) throughout. The GI50 with NCI-H522, in the test with SK-MEL-5, in the test with HOP-62, in the test with A549, with NCI/ADR-RES and in the test on U-251 was > 100 µM (inactive) in each case. Besides, the GI50 in the test with ACHN, in the test on NCI-H226, in the test with M14, in the test on MDA-MB-435, in the test on PC-3 and with DU-145 was > 100 µM (inactive) in each case. For the same compound, in the test on UO-31, the GI50 is > 100 µM (inactive).
For the compound `CC1=C(C)C(=O)C(C2=CC(=O)c3ccccc3C2=O)=C(C2=CC(=O)c3ccccc3C2=O)C1=O`, the GI50 in the test with NCI-H23 was 8.13 µM (inactive); in the test on HCC 2998, 6.95 µM (inactive); in the test with NCI-H460 it was 10.1 µM (inactive); in the test with EKVX, 19.3 µM (inactive); in the test on SK-MEL-2, 5.9 µM (inactive); in the test on BT-549, 18.7 µM (inactive). In addition, the GI50 is 2.85 µM (inactive) with NCI-H522; 1.4 µM (inactive) with SK-MEL-5; 12.4 µM (inactive) in the test with HOP-62; 19.4 µM (inactive) in the test on A549; 1.68 µM (inactive) in the test with NCI/ADR-RES; 6.43 µM (inactive) in the test on U-251. Moreover, the GI50 was 3.27 µM (inactive) with ACHN; 13.1 µM (inactive) in the test with NCI-H226; 8.49 µM (inactive) in the test with M14; 0.352 µM (active) in the test with MDA-MB-435; 5.74 µM (inactive) with PC-3; 3.21 µM (inactive) in the test with DU-145. Also, in the test on UO-31, the GI50 is 2.84 µM (inactive).
Regarding `CC(C#N)NCc1ccc(C(C)NC(C)C#N)cc1` (stereo not given), the GI50 with NCI-H23, with HCC 2998, with NCI-H460, in the test with EKVX, in the test with SK-MEL-2 and in the test with BT-549 was > 100 µM (inactive) each time. The GI50 in the test on NCI-H522, in the test on SK-MEL-5, in the test with A549, in the test with NCI/ADR-RES, in the test with U-251 and in the test on CCRF-CEM was > 100 µM (inactive) in each case. In addition, the GI50 in the test on ACHN, in the test on NCI-H226, with M14, with MDA-MB-435, in the test with PC-3 and with DU-145 was > 100 µM (inactive) in each case. Also, the GI50 with UO-31 is 93.1 µM (inactive).
Turning to `O=C(NNC(=S)NC1CCCCC1)C12CC3CC(CC(C3)C1)C2`, the GI50 with NCI-H23, in the test on HCC 2998, with NCI-H460, in the test on SK-MEL-2, with BT-549 and in the test with NCI-H522 was > 100 µM (inactive) each time. Besides, the GI50 with SK-MEL-5, in the test on HOP-62, in the test with A549, with NCI/ADR-RES, in the test with U-251 and with CCRF-CEM was > 100 µM (inactive) throughout. Besides, the GI50 with ACHN, with NCI-H226, with M14, with MDA-MB-435, in the test on PC-3 and in the test with DU-145 was > 100 µM (inactive) each time. Besides, in the test on UO-31, the GI50 is > 100 µM (inactive).
On to `COc1ccc(C2=C(N)c3cc(OC)ccc3C2=O)cc1`, for which the GI50 was 55.7 µM (inactive) in the test on NCI-H23; > 100 µM (inactive) in the test with HCC 2998; > 100 µM (inactive) in the test on NCI-H460; > 100 µM (inactive) with EKVX; > 100 µM (inactive) in the test on SK-MEL-2; > 100 µM (inactive) with BT-549. The GI50 in the test with NCI-H522 is > 100 µM (inactive); with SK-MEL-5, > 100 µM (inactive); in the test on HOP-62 it was > 100 µM (inactive); in the test with A549 it was > 100 µM (inactive); with NCI/ADR-RES, 88.7 µM (inactive); in the test with U-251, > 100 µM (inactive). Besides, the GI50 in the test with ACHN was 49.9 µM (inactive); in the test on NCI-H226 it was > 100 µM (inactive); in the test on M14 it was > 100 µM (inactive); in the test with MDA-MB-435, > 100 µM (inactive); in the test with PC-3, > 100 µM (inactive); in the test with DU-145, > 100 µM (inactive).
`CCOC(=O)N1CCN(Cc2cc(=O)n3cc(C)ccc3n2)CC1`: the GI50 with NCI-H23, with HCC 2998, in the test on NCI-H460, in the test with EKVX, with SK-MEL-2 and with BT-549 was > 100 µM (inactive) each time. Further, the GI50 in the test on NCI-H522, in the test on HOP-62, in the test on A549, with NCI/ADR-RES, in the test with U-251 and in the test on CCRF-CEM was > 100 µM (inactive) throughout. Besides, the GI50 with ACHN, in the test with NCI-H226, in the test on M14, in the test with MDA-MB-435, in the test on PC-3 and with DU-145 was > 100 µM (inactive) each time. Further, the GI50 in the test with UO-31 was > 100 µM (inactive).
For `NC(=O)CSc1nc2ccccc2c(=O)n1N`, the GI50 with NCI-H23, with HCC 2998, in the test with NCI-H460, with EKVX, with SK-MEL-2 and in the test with BT-549 was > 100 µM (inactive) each time. Besides, the GI50 with NCI-H522, in the test with SK-MEL-5, in the test with A549, with NCI/ADR-RES, in the test on U-251 and in the test with ACHN was > 100 µM (inactive) each time. The GI50 in the test on NCI-H226, with M14, in the test on MDA-MB-435, in the test on PC-3, in the test with DU-145 and in the test with UO-31 was > 100 µM (inactive) each time.
Consider `Nc1cccc(S(=O)(=O)Nc2nnc(S(N)(=O)=O)s2)c1`, for which the GI50 in the test with NCI-H23, in the test with HCC 2998, in the test with NCI-H460, in the test on EKVX, in the test on SK-MEL-2 and in the test on BT-549 was > 100 µM (inactive) throughout. Besides, the GI50 in the test on NCI-H522, with SK-MEL-5, with HOP-62, in the test on A549, with NCI/ADR-RES and in the test with U-251 was > 100 µM (inactive) each time. In addition, the GI50 in the test on ACHN, in the test with NCI-H226, in the test with M14, in the test with MDA-MB-435, in the test on PC-3 and in the test with DU-145 was > 100 µM (inactive) throughout. Further, the GI50 in the test with UO-31 is > 100 µM (inactive).
Turning to `CC[C@@]1(O)C(=O)OCc2c1cc1n(c2=O)Cc2cc3cc(OC)ccc3nc2-1`, the GI50 is 0.00902 µM (active) in the test on NCI-H23; 0.0276 µM (active) with HCC 2998; 0.00607 µM (active) in the test on NCI-H460; 0.546 µM (active) with EKVX; 0.16 µM (active) in the test with SK-MEL-2; 0.0308 µM (active) in the test on BT-549. Further, the GI50 was 0.0246 µM (active) in the test on NCI-H522; 0.0211 µM (active) in the test with SK-MEL-5; 0.00562 µM (active) in the test on HOP-62; 0.0249 µM (active) in the test with A549; 0.073 µM (active) in the test with NCI/ADR-RES; 0.00407 µM (active) with U-251. For the same compound, the GI50 in the test on CCRF-CEM was 0.00457 µM (active); in the test with ACHN, 0.00476 µM (active); in the test on NCI-H226 it was 0.016 µM (active); in the test on M14, 0.00718 µM (active); in the test with MDA-MB-435 it was 0.0441 µM (active); with PC-3, 0.0364 µM (active). Moreover, the GI50 in the test with DU-145 is 0.00439 µM (active); in the test on UO-31 it was 0.0333 µM (active).
